Assay results taken from PubChem BioAssay AID1745844 (Carcinogenic Potency Database (CPDB), 2022).
The source made the active and inactive calls. How the calls were made is not given here.

Test system: rodent lifetime carcinogenesis bioassay, tumor incidence TD50
Assay: carcinogenic potency in animals, long-term in vivo studies, CPDB compilation (AID 1745844)

## COc1cc(-c2ccc(N)c(OC)c2)ccc1N
mouse, strain BALB/cStCrlfC3Hf/Nctr, females, in drinking water, site: Harderian gland, lesion: adenoma, dosed 78 weeks, study length 78 weeks
  carcinogen call: negative (inactive)
mouse, strain BALB/cStCrlfC3Hf/Nctr, females, in drinking water, site: Harderian gland, lesion: adenoma, dosed 112 weeks, study length 112 weeks
  carcinogen call: negative (inactive)
mouse, strain BALB/cStCrlfC3Hf/Nctr, females, in drinking water, site: Harderian gland, lesion: carcinoma, dosed 78 weeks, study length 78 weeks
  carcinogen call: negative (inactive)
mouse, strain BALB/cStCrlfC3Hf/Nctr, males, in drinking water, site: Harderian gland, lesion: adenoma, dosed 78 weeks, study length 78 weeks
  TD50: 3560 mg/kg/day (inactive)
mouse, strain BALB/cStCrlfC3Hf/Nctr, males, in drinking water, site: Harderian gland, lesion: adenoma, dosed 112 weeks, study length 112 weeks
  carcinogen call: negative (inactive)
mouse, strain ICR/Jcl, males, in feed, site: liver, lesion: hepatoma, dosed 65 weeks, study length 65 weeks
  TD50: 73.8 mg/kg/day
rat, strain Fischer 344, females, in drinking water, site: Zymbal's gland, lesion: adenoma + carcinoma + carcinoma, bilateral, dosed 91 weeks, study length 93 weeks
  TD50: 6.74 mg/kg/day
rat, strain Fischer 344, females, in drinking water, site: Zymbal's gland, lesion: adenoma, dosed 91 weeks, study length 93 weeks
  TD50: 27.5 mg/kg/day
rat, strain Fischer 344, females, in drinking water, site: Zymbal's gland, lesion: carcinoma + carcinoma, bilateral, dosed 91 weeks, study length 93 weeks
  TD50: 8.41 mg/kg/day
rat, strain Fischer 344, females, in drinking water, site: all sites, lesion: mononuclear-cell leukemia, dosed 91 weeks, study length 93 weeks
  TD50: 6.71 mg/kg/day
rat, strain Fischer 344, females, in drinking water, site: any site (literature study), lesion: several types, types named in the paper, dosed 91 weeks, study length 93 weeks
  TD50: 1.09 mg/kg/day
rat, strain Fischer 344, females, in drinking water, site: cervix uteri + uterus, lesion: carcinoma + papillary adenoma + adenoma, dosed 91 weeks, study length 93 weeks
  TD50: 14 mg/kg/day
rat, strain Fischer 344, females, in drinking water, site: cervix uteri + uterus, lesion: papillary adenoma + adenoma, dosed 91 weeks, study length 93 weeks
  TD50: 15.8 mg/kg/day
rat, strain Fischer 344, females, in drinking water, site: clitoral gland + cervix uteri + colon, descending + liver + mammary gland + palate + pharynx + rectum + skin + tongue + uterus + Zymbal's glan, lesion: adenoma + adenoma, bilateral + carcinoma + carcinoma, bilateral + papillary adenoma + adenocarcinoma + adenomatous polyp + hepatocellu, dosed 91 weeks, study length 93 weeks
  TD50: 1.19 mg/kg/day
rat, strain Fischer 344, females, in drinking water, site: clitoral gland, lesion: adenoma + adenoma, bilateral + carcinoma + carcinoma, bilateral, dosed 91 weeks, study length 93 weeks
  TD50: 1.6 mg/kg/day
rat, strain Fischer 344, females, in drinking water, site: clitoral gland, lesion: adenoma + adenoma, bilateral, dosed 91 weeks, study length 93 weeks
  TD50: 3.84 mg/kg/day
rat, strain Fischer 344, females, in drinking water, site: clitoral gland, lesion: carcinoma + carcinoma, bilateral, dosed 91 weeks, study length 93 weeks
  TD50: 2.62 mg/kg/day
rat, strain Fischer 344, females, in drinking water, site: colon, descending + rectum, lesion: adenocarcinoma + adenomatous polyp, dosed 91 weeks, study length 93 weeks
  TD50: 44.3 mg/kg/day
rat, strain Fischer 344, females, in drinking water, site: liver, lesion: hepatocellular adenoma + hepatocellular carcinoma + neoplastic nodule, dosed 91 weeks, study length 93 weeks
  TD50: 33.3 mg/kg/day
rat, strain Fischer 344, females, in drinking water, site: liver, lesion: hepatocellular carcinoma + neoplastic nodule, dosed 91 weeks, study length 93 weeks
  TD50: 33.3 mg/kg/day
rat, strain Fischer 344, females, in drinking water, site: mammary gland, lesion: adenocarcinoma + adenoma + fibroadenoma, dosed 91 weeks, study length 93 weeks
  TD50: 3.24 mg/kg/day
rat, strain Fischer 344, females, in drinking water, site: mammary gland, lesion: adenocarcinoma, dosed 91 weeks, study length 93 weeks
  TD50: 7.7 mg/kg/day
rat, strain Fischer 344, females, in drinking water, site: mammary gland, lesion: adenoma + fibroadenoma, dosed 91 weeks, study length 93 weeks
  TD50: 6.22 mg/kg/day
rat, strain Fischer 344, females, in drinking water, site: mammary gland, lesion: fibroadenoma, dosed 91 weeks, study length 93 weeks
  TD50: 7.05 mg/kg/day
rat, strain Fischer 344, females, in drinking water, site: palate + pharynx + tongue, lesion: squamous-cell carcinoma + squamous-cell papilloma, dosed 91 weeks, study length 93 weeks
  TD50: 13.8 mg/kg/day
rat, strain Fischer 344, females, in drinking water, site: palate + tongue, lesion: squamous-cell carcinoma, dosed 91 weeks, study length 93 weeks
  TD50: 113 mg/kg/day
rat, strain Fischer 344, females, in drinking water, site: palate + tongue, lesion: squamous-cell papilloma, dosed 91 weeks, study length 93 weeks
  TD50: 16.6 mg/kg/day
rat, strain Fischer 344, females, in drinking water, site: palate, lesion: squamous-cell carcinoma + squamous-cell papilloma, dosed 91 weeks, study length 93 weeks
  TD50: 45.3 mg/kg/day
rat, strain Fischer 344, females, in drinking water, site: palate, lesion: squamous-cell papilloma, dosed 91 weeks, study length 93 weeks
  TD50: 47.8 mg/kg/day
rat, strain Fischer 344, females, in drinking water, site: pituitary gland, lesion: adenoma + pars distalis adenoma + pars distalis carcinoma, dosed 91 weeks, study length 93 weeks
  TD50: 9.4 mg/kg/day
rat, strain Fischer 344, females, in drinking water, site: pituitary gland, lesion: adenoma + pars distalis adenoma, dosed 91 weeks, study length 93 weeks
  TD50: 8.84 mg/kg/day
rat, strain Fischer 344, females, in drinking water, site: skin, lesion: basal-cell adenoma + basal-cell carcinoma, dosed 91 weeks, study length 93 weeks
  TD50: 10.2 mg/kg/day
rat, strain Fischer 344, females, in drinking water, site: skin, lesion: basal-cell adenoma, dosed 91 weeks, study length 93 weeks
  TD50: 12.3 mg/kg/day
rat, strain Fischer 344, females, in drinking water, site: tongue, lesion: squamous-cell carcinoma + squamous-cell papilloma, dosed 91 weeks, study length 93 weeks
  TD50: 19.9 mg/kg/day
rat, strain Fischer 344, females, in drinking water, site: uterus, lesion: endometrial stromal polyp, dosed 91 weeks, study length 93 weeks
  TD50: 11.6 mg/kg/day
rat, strain Fischer 344, males, in drinking water, site: Zymbal's gland, lesion: adenoma + adenoma, bilateral + carcinoma + carcinoma, bilateral, dosed 88 weeks, study length 92 weeks
  TD50: 3.02 mg/kg/day
rat, strain Fischer 344, males, in drinking water, site: Zymbal's gland, lesion: adenoma + adenoma, bilateral, dosed 88 weeks, study length 92 weeks
  TD50: 5.84 mg/kg/day
rat, strain Fischer 344, males, in drinking water, site: Zymbal's gland, lesion: carcinoma + carcinoma, bilateral, dosed 88 weeks, study length 92 weeks
  TD50: 6.71 mg/kg/day
rat, strain Fischer 344, males, in drinking water, site: adrenal medulla, lesion: pheochromocytoma benign, bilateral + pheochromocytoma, benign, dosed 88 weeks, study length 92 weeks
  TD50: 2.06 mg/kg/day
